In ChEMBL document CHEMBL4000220, “Optimization of spirocyclic proline tryptophan hydroxylase-1 inhibitors” (Bioorg Med Chem Lett, 2017):
Each block holds one compound with its values, some of them ahead of it.

Legend:
Mus musculus [1] = assay: In vivo inhibition of TPH1 in mouse assessed as reduction in 5-HT level in intestinal mucosa at 50 mg/kg, po administered daily as single dose relative to control; assay type: functional
Rattus norvegicus [2] = assay: Half life in rat assessed as (S)-8-(2-amino-6-((R)-1-(3',4'-dimethyl-3-(3-methyl-1H-pyrazol-1-yl)biphenyl-4-yl)-2,2,2-trifluoroethoxy)pyrimidin-4-yl)-2,8-diazaspiro[4.5]decane-3-carboxylic acid level at 1 mg/kg, iv; assay type: ADME, organism-based; conditions: in vivo
Rattus norvegicus [3] = assay: Cmax in rat assessed as (S)-8-(2-amino-6-((R)-1-(3',4'-dimethyl-3-(3-methyl-1H-pyrazol-1-yl)biphenyl-4-yl)-2,2,2-trifluoroethoxy)pyrimidin-4-yl)-2,8-diazaspiro[4.5]decane-3-carboxylic acid level at 25 mg/kg, po; assay type: ADME, organism-based; set-up: dose 25 mg/kg, route oral; conditions: in vivo
Rattus norvegicus [4] = assay: AUC (0 to last) in rat assessed as (S)-8-(2-amino-6-((R)-1-(3',4'-dimethyl-3-(3-methyl-1H-pyrazol-1-yl)biphenyl-4-yl)-2,2,2-trifluoroethoxy)pyrimidin-4-yl)-2,8-diazaspiro[4.5]decane-3-carboxylic acid level at 25 mg/kg, po; assay type: ADME, organism-based; set-up: dose 25 mg/kg, time 0 - last, route oral; conditions: in vivo
Mus musculus [5] = assay: In vivo inhibition of TPH1 in mouse assessed as reduction in 5-HT level in intestinal mucosa at 10 mg/kg, po administered daily as single dose relative to control; assay type: functional
Mus musculus [6] = assay: Prodrug activation in mouse assessed as (S)-8-(2-amino-6-((R)-1-(5-chloro-3'-methylbiphenyl-2-yl)-2,2,2-trifluoroethoxy)pyrimidin-4-yl)-2,8-diazaspiro[4.5]decane-3-carboxylic acid formation at 10 to 50 mg/kg, po administered as single dose; assay type: organism-based; conditions: in vivo
[7] = Clearance in rat at 1 mg/kg, iv; assay type: ADME, organism-based; conditions: in vivo
Rattus norvegicus [8] = assay: Clearance in rat at 1 mg/kg, iv relative to hepatic blood flow; assay type: ADME, organism-based; conditions: in vivo
[9] = Volume of distribution at steady state in rat at 1 mg/kg, iv; assay type: ADME, organism-based; conditions: in vivo, read-out: Vdss
Rattus norvegicus [10] = assay: Cmax in rat assessed as (S)-8-(2-amino-6-((R)-1-(5-chlorobiphenyl-2-yl)-2,2,2-trifluoroethoxy)pyrimidin-4-yl)-2,8-diazaspiro[4.5]decane-3-carboxylic acid level at 25 mg/kg, po; assay type: ADME, organism-based; set-up: dose 25 mg/kg, route oral; conditions: in vivo
Rattus norvegicus [11] = assay: AUC (0 to last) in rat assessed as (S)-8-(2-amino-6-((R)-1-(5-chlorobiphenyl-2-yl)-2,2,2-trifluoroethoxy)pyrimidin-4-yl)-2,8-diazaspiro[4.5]decane-3-carboxylic acid level at 25 mg/kg, po; assay type: ADME, organism-based; set-up: dose 25 mg/kg, route oral, time 0 - last; conditions: in vivo
[12] = Half life in rat at 1 mg/kg, iv; assay type: ADME, organism-based; conditions: in vivo
Canis familiaris [13] = assay: Clearance in beagle dog at 1 mg/kg, iv relative to hepatic blood flow; assay type: ADME, organism-based, Canis lupus familiaris; conditions: in vivo
Canis familiaris [14] = assay: Half life in beagle dog at 1 mg/kg, iv; assay type: ADME, organism-based, Canis lupus familiaris; conditions: in vivo
Canis familiaris [15] = assay: Volume of distribution at steady state in beagle dog at 1 mg/kg, iv; assay type: ADME, organism-based, Canis lupus familiaris; conditions: in vivo
Canis familiaris [16] = assay: Half life in beagle dog assessed as (S)-8-(2-amino-6-((R)-1-(5-chlorobiphenyl-2-yl)-2,2,2-trifluoroethoxy)pyrimidin-4-yl)-2,8-diazaspiro[4.5]decane-3-carboxylic acid level at 1 mg/kg, iv; assay type: ADME, organism-based, Canis lupus familiaris; conditions: in vivo
Canis familiaris [17] = assay: Cmax in beagle dog assessed as (S)-8-(2-amino-6-((R)-1-(5-chlorobiphenyl-2-yl)-2,2,2-trifluoroethoxy)pyrimidin-4-yl)-2,8-diazaspiro[4.5]decane-3-carboxylic acid level at 25 mg/kg, po; assay type: ADME, organism-based, Canis lupus familiaris; set-up: dose 25 mg/kg, route oral; conditions: in vivo
Canis familiaris [18] = assay: AUC (0 to last) in beagle dog assessed as (S)-8-(2-amino-6-((R)-1-(5-chlorobiphenyl-2-yl)-2,2,2-trifluoroethoxy)pyrimidin-4-yl)-2,8-diazaspiro[4.5]decane-3-carboxylic acid level at 25 mg/kg, po; assay type: ADME, organism-based, Canis lupus familiaris; set-up: dose 25 mg/kg, time 0 - last, route oral; conditions: in vivo
Mus musculus [19] = assay: Prodrug activation in mouse assessed as (S)-8-(2-amino-6-((R)-1-(5-chlorobiphenyl-2-yl)-2,2,2-trifluoroethoxy)pyrimidin-4-yl)-2,8-diazaspiro[4.5]decane-3-carboxylic acid formation at 10 to 50 mg/kg, po administered as single dose; assay type: organism-based; conditions: in vivo
Mus musculus [20] = assay: Prodrug activation in mouse assessed as (S)-8-(2-amino-6-((R)-1-(5-chloro-3'-sulfamoylbiphenyl-2-yl)-2,2,2-trifluoroethoxy)pyrimidin-4-yl)-2,8-diazaspiro[4.5]decane-3-carboxylic acid formation at 10 to 50 mg/kg, po administered as single dose; assay type: organism-based; conditions: in vivo
Mus musculus [21] = assay: Drug level in mouse treated with (S)-ethyl 8-(2-amino-6-((R)-1-(5-chloro-3'-methoxybiphenyl-2-yl)-2,2,2-trifluoroethoxy)pyrimidin-4-yl)-2,8-diazaspiro[4.5]decane-3-carboxylate at 10 to 50 mg/kg, po administered as single dose; assay type: ADME, organism-based; conditions: in vivo
[22] = target: T1, Tryptophan 5-hydroxylase 1 (Homo sapiens, UniProt P17752)
T1 sequence (P17752 whole entry): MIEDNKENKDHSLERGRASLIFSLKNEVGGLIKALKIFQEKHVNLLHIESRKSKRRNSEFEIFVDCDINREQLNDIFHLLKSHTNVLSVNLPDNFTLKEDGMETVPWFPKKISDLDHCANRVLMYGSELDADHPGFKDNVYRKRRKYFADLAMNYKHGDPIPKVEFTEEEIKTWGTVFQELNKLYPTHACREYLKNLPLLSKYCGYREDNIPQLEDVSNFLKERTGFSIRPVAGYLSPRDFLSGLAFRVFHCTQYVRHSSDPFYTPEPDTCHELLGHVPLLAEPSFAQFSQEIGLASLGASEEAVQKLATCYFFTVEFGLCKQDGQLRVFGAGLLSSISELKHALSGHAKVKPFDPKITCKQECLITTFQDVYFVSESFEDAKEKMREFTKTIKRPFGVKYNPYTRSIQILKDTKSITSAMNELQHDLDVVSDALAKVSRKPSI
Description: Inhibition of TPH1 (unknown origin)

Mus musculus [23] = assay: Prodrug activation in mouse assessed as (S)-8-(2-amino-6-((R)-1-(5-chloro-3'-methoxybiphenyl-2-yl)-2,2,2-trifluoroethoxy)pyrimidin-4-yl)-2,8-diazaspiro[4.5]decane-3-carboxylic acid formation at 10 to 50 mg/kg, po administered as single dose; assay type: organism-based; conditions: in vivo
Mus musculus [24] = assay: Prodrug activation in mouse assessed as (S)-8-(2-amino-6-((R)-1-(5-chloro-3',5'-difluorobiphenyl-2-yl)-2,2,2-trifluoroethoxy)pyrimidin-4-yl)-2,8-diazaspiro[4.5]decane-3-carboxylic acid formation at 10 to 50 mg/kg, po administered as single dose; assay type: organism-based; conditions: in vivo

t1/2 (Rattus norvegicus [2]): 3.6 h
Cmax (Rattus norvegicus [3]): 240 ng/mL
AUClast (Rattus norvegicus [4]): 1634 ng·h/mL
SMILES: CCOC(=O)[C@@H]1CC2(CCN(c3cc(O[C@H](c4ccc(-c5ccc(C)c(C)c5)cc4-n4ccc(C)n4)C(F)(F)F)nc(N)n3)CC2)CN1
inhibition in vivo at 50 mg/kg (Mus musculus [1]): 70%

Drug metabolism (Mus musculus [6]): Metabolite_Detected
SMILES: CCOC(=O)[C@@H]1CC2(CCN(c3cc(O[C@H](c4ccc(Cl)cc4-c4cccc(C)c4)C(F)(F)F)nc(N)n3)CC2)CN1
inhibition in vivo at 50 mg/kg (Mus musculus [1]): 54%
inhibition in vivo at 10 mg/kg (Mus musculus [5]): 24%

Drug metabolism (Mus musculus [20]): Metabolite_Detected
SMILES: CCOC(=O)[C@@H]1CC2(CCN(c3cc(O[C@H](c4ccc(Cl)cc4-c4cccc(S(N)(=O)=O)c4)C(F)(F)F)nc(N)n3)CC2)CN1
inhibition in vivo at 50 mg/kg (Mus musculus [1]): 42%
inhibition in vivo at 10 mg/kg (Mus musculus [5]): 15%

Drug metabolism (Mus musculus [23]): Metabolite_Detected
SMILES: CCOC(=O)[C@@H]1CC2(CCN(c3cc(O[C@H](c4ccc(Cl)cc4-c4cccc(OC)c4)C(F)(F)F)nc(N)n3)CC2)CN1
inhibition in vivo at 50 mg/kg (Mus musculus [1]): 46%
inhibition in vivo at 10 mg/kg (Mus musculus [5]): 19%

Further lines, the compound ahead of its results:

SMILES: CCOC(=O)[C@@H]1CC2(CCN(c3cc(O[C@H](c4ccc(Cl)cc4-c4ccccc4)C(F)(F)F)nc(N)n3)CC2)CN1 [RODATRISTAT ETHYL]
inhibition in vivo at 50 mg/kg (Mus musculus [1]): 71%
clearance [7]: 106 mL/min/kg
CL (Rattus norvegicus [8]): > 100%
Vd [9]: 12.7 L/kg
Cmax (Rattus norvegicus [10]): 722 ng/mL
AUClast (Rattus norvegicus [11]): 5374 ng·h/mL
half-life [12]: 3.18 h
CL (Canis familiaris [13]): 46%
t1/2 (Canis familiaris [14]): 5.05 h
Vdss (Canis familiaris [15]): 2.34 L/kg
t1/2 (Canis familiaris [16]): 7.59 h
Cmax (Canis familiaris [17]): 2797 ng/mL
AUClast (Canis familiaris [18]): 32398 ng·h/mL
inhibition in vivo at 10 mg/kg (Mus musculus [5]): 55%
Drug metabolism (Mus musculus [19]): Metabolite_Detected

SMILES: COc1cccc(-c2cc(Cl)ccc2[C@@H](Oc2cc(N3CCC4(CC3)CN[C@H](C(=O)O)C4)nc(N)n2)C(F)(F)F)c1
Drug metabolism (Mus musculus [21]): Metabolite_Detected
IC50 [22]: 19 nM

SMILES: CCOC(=O)[C@@H]1CC2(CCN(c3cc(O[C@H](c4ccc(Cl)cc4-c4cc(F)cc(F)c4)C(F)(F)F)nc(N)n3)CC2)CN1
inhibition in vivo at 50 mg/kg (Mus musculus [1]): 37%
inhibition in vivo at 10 mg/kg (Mus musculus [5]): 30%
Drug metabolism (Mus musculus [24]): Metabolite_Detected
